Assay results published in patent US6680282B2 (priority 1997, dated 2004).

These molecules were tested on Pyricularia oryzae (assay: whole plant or invertebrate). Details: 100 ppm spray, rice seedling (Jikkoku) 4-leaf stage, lesion number on fourth leaf 6 days after inoculation.
Type: in vivo
`CCc1cc(C(C)CC)cc2c(OC(C)=O)c(C)c(C)nc12` (racemic) [Compound No. 348] was tested, and the “rank (control effect, protective value from lesion number)” value was “A (protective value ≧80%)”. In the case of `CC(=O)Oc1c(C)c(C)nc2ccc(C)cc12` [Compound No. 2], the “rank (control effect, protective value from lesion number)” value was “B (protective value 50 to 79%)”. With `CCc1ccc2nc(C)c(C)c(O)c2c1` [Compound No. 9] the “rank (control effect, protective value from lesion number)” value was “A (protective value ≧80%)”. With `CCCc1ccc2nc(C)c(C)c(O)c2c1` [Compound No. 13] the “rank (control effect, protective value from lesion number)” value was “A (protective value ≧80%)”. For `CCCCCCc1ccc2nc(C)c(C)c(O)c2c1` [Compound No. 107], the “rank (control effect, protective value from lesion number)” value was “A (protective value ≧80%)”. With `CCCCCCc1ccc2nc(C)c(C)c(OC(C)=O)c2c1` [Compound No. 108] the “rank (control effect, protective value from lesion number)” value was “A (protective value ≧80%)”. With `Cc1nc2ccc(C3CCCCC3)cc2c(O)c1C` [Compound No. 111] the “rank (control effect, protective value from lesion number)” value was “B (protective value 50 to 79%)”. In the case of `CC(=O)Oc1c(C)c(C)nc2ccc(C3CCCCC3)cc12` [Compound No. 112], the “rank (control effect, protective value from lesion number)” value was “A (protective value ≧80%)”. `CCCCCCCCc1ccc2nc(C)c(C)c(O)c2c1` [Compound No. 125] was tested, and the “rank (control effect, protective value from lesion number)” value was “B (protective value 50 to 79%)”. With `CCCCCCCCc1ccc2nc(C)c(C)c(OC(C)=O)c2c1` [Compound No. 126] the “rank (control effect, protective value from lesion number)” value was “A (protective value ≧80%)”. In the case of `Cc1nc2ccc(C(F)(F)F)cc2c(O)c1C` [Compound No. 131], the “rank (control effect, protective value from lesion number)” value was “B (protective value 50 to 79%)”. `CC(=O)Oc1c(C)c(C)nc2ccc(Oc3ccccc3)cc12` [Compound No. 136] was tested, and the “rank (control effect, protective value from lesion number)” value was “A (protective value ≧80%)”. With `CCC(C)c1ccc2nc3c(c(OC(C)=O)c2c1)CCC3` (centres unmarked) [Compound No. 153] the “rank (control effect, protective value from lesion number)” value was “B (protective value 50 to 79%)”. `CC(=O)Oc1c(C)c(C)nc2c(C)cc(C)cc12` [Compound No. 262] was tested, and the “rank (control effect, protective value from lesion number)” value was “B (protective value 50 to 79%)”. For `CC(=O)Oc1c(C)c(C)nc2c(C(C)C)cc(C(C)C)cc12` [Compound No. 274], the “rank (control effect, protective value from lesion number)” value was “A (protective value ≧80%)”. In the case of `CC(=O)Oc1c(C)c(C)nc2c(C)cc(C3CCCC3)cc12` [Compound No. 352, 4-Acetoxy-6-c-pentyl-8-methyl-2,3-dimethylquinoline], the “rank (control effect, protective value from lesion number)” value was “A (protective value ≧80%)”. In the case of `CCCc1ccc2nc(C)c(C)c(OC(C)=O)c2c1` [compound 14], the “rank (control effect, protective value from lesion number)” value was “A (protective value ≧80%)”. For `Cc1nc2ccc(OC(C)C)cc2c(O)c1C` [compound 23], the “rank (control effect, protective value from lesion number)” value was “B (protective value 50 to 79%)”. `CCCCc1ccc2nc(C)c(CC)c(OC(C)=O)c2c1` [compound 44] was tested, and the “rank (control effect, protective value from lesion number)” value was “A (protective value ≧80%)”. In the case of `CCCCc1ccc2nc(C)c(CCCC)c(OC(C)=O)c2c1` [compound 46], the “rank (control effect, protective value from lesion number)” value was “A (protective value ≧80%)”. For `CCCCc1ccc2nc(CC)c(C)c(OC(C)=O)c2c1` [compound 47], the “rank (control effect, protective value from lesion number)” value was “A (protective value ≧80%)”. With `CCCCc1ccc2nc(CCC)c(C)c(OC(C)=O)c2c1` [compound 48] the “rank (control effect, protective value from lesion number)” value was “A (protective value ≧80%)”. With `CCCCc1ccc2nc(CCCC)c(C)c(OC(C)=O)c2c1` [compound 49] the “rank (control effect, protective value from lesion number)” value was “A (protective value ≧80%)”. `CCC(C)c1ccc2nc(C)c(C)c(O)c2c1` (centres unmarked) [compound 54] was tested, and the “rank (control effect, protective value from lesion number)” value was “A (protective value ≧80%)”. For `CCC(C)c1ccc2nc(C)c(C)c(OC(=O)C3CC3)c2c1` (centres unmarked) [compound 57], the “rank (control effect, protective value from lesion number)” value was “A (protective value ≧80%)”. With `CCC(C)c1ccc2nc(C)c(C)c(OC(=O)c3ccc(OC)cc3)c2c1` (centres unmarked) [compound 62] the “rank (control effect, protective value from lesion number)” value was “A (protective value ≧80%)”. `CCC(C)c1ccc2nc(C)c(C)c(OC(=O)c3ccc(Cl)cc3)c2c1` (centres unmarked) [compound 63] was tested, and the “rank (control effect, protective value from lesion number)” value was “A (protective value ≧80%)”. `CCC(C)c1ccc2nc(C)c(C)c(OC(=O)Oc3ccc(OC)cc3)c2c1` (centres unmarked) [compound 69] was tested, and the “rank (control effect, protective value from lesion number)” value was “A (protective value ≧80%)”. For `CCC(C)c1ccc2nc(C)c(C)c(OC(=O)Oc3ccc(Cl)cc3)c2c1` (centres unmarked) [compound 70], the “rank (control effect, protective value from lesion number)” value was “A (protective value ≧80%)”. In the case of `Cc1nc2ccc(C(C)(C)C)cc2c(O)c1C` [compound 83], the “rank (control effect, protective value from lesion number)” value was “A (protective value ≧80%)”. With `CC(=O)Oc1c(C)c(C)nc2ccc(C(C)(C)C)cc12` [compound 84] the “rank (control effect, protective value from lesion number)” value was “A (protective value ≧80%)”. In the case of `Cc1nc2ccc(CC(C)C)cc2c(O)c1C` [compound 92], the “rank (control effect, protective value from lesion number)” value was “B (protective value 50 to 79%)”. For `CCC(C)c1ccc2nc(C)c(C)c(OC(=O)C3CCCCC3)c2c1` (centres unmarked) [compound 170], the “rank (control effect, protective value from lesion number)” value was “A (protective value ≧80%)”. `CCC(C)c1ccc2nc(C)c(C)c(OC(=O)c3ccc([N+](=O)[O-])cc3)c2c1` (centres unmarked) [compound 171] was tested, and the “rank (control effect, protective value from lesion number)” value was “B (protective value 50 to 79%)”. For `CCC(C)c1ccc2nc(C)c(C)c(OC(=O)Cc3ccccc3)c2c1` (centres unmarked) [compound 172], the “rank (control effect, protective value from lesion number)” value was “A (protective value ≧80%)”. `CCCCCC(=O)Oc1c(C)c(C)nc2ccc(C(C)CC)cc12` (centres unmarked) [compound 173] was tested, and the “rank (control effect, protective value from lesion number)” value was “A (protective value ≧80%)”. For `CCCCOC(=O)Oc1c(C)c(C)nc2ccc(C(C)CC)cc12` (centres unmarked) [compound 179], the “rank (control effect, protective value from lesion number)” value was “A (protective value ≧80%)”. In the case of `CCCCCCCC(=O)Oc1c(C)c(C)nc2ccc(C(C)CC)cc12` (centres unmarked) [compound 180], the “rank (control effect, protective value from lesion number)” value was “A (protective value ≧80%)”. In the case of `CCc1cccc2nc(C)c(C)c(OC(C)=O)c12` [compound 182], the “rank (control effect, protective value from lesion number)” value was “B (protective value 50 to 79%)”. `CCc1ccc2c(OC(C)=O)c(C)c(C)nc2c1` [compound 183] was tested, and the “rank (control effect, protective value from lesion number)” value was “B (protective value 50 to 79%)”. With `CCCCc1cc(Br)c2nc(C)c(C)c(O)c2c1` [compound 186] the “rank (control effect, protective value from lesion number)” value was “B (protective value 50 to 79%)”. In the case of `Cc1nc2c(C)cc(Br)cc2c(O)c1C` [compound 190], the “rank (control effect, protective value from lesion number)” value was “B (protective value 50 to 79%)”. In the case of `Cc1nc2ccc(Br)c(C)c2c(O)c1C` [compound 191], the “rank (control effect, protective value from lesion number)” value was “A (protective value ≧80%)”. `Cc1cc2nc(C)c(C)c(O)c2cc1Br` [compound 192] was tested, and the “rank (control effect, protective value from lesion number)” value was “A (protective value ≧80%)”. With `Cc1nc2c(F)cc(Br)cc2c(O)c1C` [compound 193] the “rank (control effect, protective value from lesion number)” value was “A (protective value ≧80%)”. In the case of `CC(=O)Oc1c(C)c(C)nc2c(C)cc(F)cc12` [compound 198], the “rank (control effect, protective value from lesion number)” value was “B (protective value 50 to 79%)”. In the case of `CC=C(C)c1ccc2nc(C)c(C)c(O)c2c1` [compound 199], the “rank (control effect, protective value from lesion number)” value was “A (protective value ≧80%)”. `CC=C(C)c1ccc2nc(C)c(C)c(OC(C)=O)c2c1` [compound 200] was tested, and the “rank (control effect, protective value from lesion number)” value was “A (protective value ≧80%)”.

Same assay, conditions: Pyricularia oryzae, foliar, 144 h, read-out: rank (control effect, protective value from lesion number)
For `CCCCCc1ccc2nc(C)c(C)c(O)c2c1` [Compound No. 97, 4-hydroxy-2,3-dimethyl-6-n-pentyl-quinoline], the pest or weed control at 100 ppm was 50 to 79%. `CCCCCc1ccc2nc(C)c(C)c(OC(C)=O)c2c1` [Compound No. 98, 4-acetoxy-2,3-dimethyl-6-n-pentyl-quinoline] was tested, and the pest or weed control at 100 ppm was greater than 80%. In the case of `CCC(C)c1cc(C)c2nc(C)c(C)c(OC(C)=O)c2c1` (centres unmarked) [Compound No. 206, 4-acetoxy-6-s-butyl-2,3,8-trimethylquinoline], the pest or weed control at 100 ppm was greater than 80%. Work on `CCC(C)c1cc(F)c2nc(C)c(C)c(OC(C)=O)c2c1` (centres unmarked) [Compound No. 212, 4-acetoxy-6-s-butyl-8-fluoro-2,3-dimethylquinoline] yielded a pest or weed control at 100 ppm greater than 80%. Molecule `CCC(C)c1cc(Cl)c2nc(C)c(C)c(OC(C)=O)c2c1` (centres unmarked) [Compound No. 214, 4-acetoxy-6-s-butyl-8-chloro-2,3-dimethylquinoline] has a pest or weed control at 100 ppm greater than 80%. For `CCC(C)c1cc(OC)c2nc(C)c(C)c(OC(C)=O)c2c1` (centres unmarked) [Compound No. 220, 4-acetoxy-6-s-butyl-8-methoxy-2,3-dimethylquinoline], the pest or weed control at 100 ppm was greater than 80%. `CC=C(C)c1cc(C)c2nc(C)c(C)c(OC(C)=O)c2c1` [Compound No. 360, 4-acetoxy-6-(2-buten-2-yl)-2,3,8-trimethylquinoline] showed a pest or weed control at 100 ppm greater than 80%. For `CC=C(C)c1cc(F)c2nc(C)c(C)c(OC(C)=O)c2c1` [Compound No. 362, 4-acetoxy-6-(2-buten-2-yl)-8-fluoro-2,3-dimethylquinoline], the pest or weed control at 100 ppm was greater than 80%.

Each molecule was assayed on Sphaerotheca fuliginea (assay: Test for control effect against powdery mildew of Cucurbitaceae (spray on cucumber seedlings)). Details: 200 ppm spray, cucumber first foliage leaf, 10 days after inoculation.
Type: in vivo
Text: Test for Control Effect Against Powdery Mildew of Cucurbitaceae
A spray liquid comprising a test compound whose concentration was adjusted to be 200 ppm by dilution with water was sprayed to a cucumber grown in a vinyl pot of 3 cm in diameter when its first foliage leaf was developed. The air-dried cucumber seedling was inoculated with a conidium suspension of Sphaerotheca fuliginea. Thereafter, the cucumber seedling was transferred in an air-conditioned greenhouse. 10 Days after the inoculation, the disease severity was observed. The protective value was calculated by comparing the disease severity in a treated area with that in an untreated area. Then, control effect was ranked according to the following criterion.
B; protective value 50 to 79%
For `CCc1cc(C(C)CC)cc2c(OC(C)=O)c(C)c(C)nc12` (racemic) [Compound No. 348], the “rank (control effect, protective value from disease severity)” value was “A (protective value ≧80%)”. With `CC(=O)Oc1c(C)c(C)nc2ccc(C3CCCCC3)cc12` [Compound No. 112] the “rank (control effect, protective value from disease severity)” value was “A (protective value ≧80%)”. `CC(=O)Oc1c(C)c(C)nc2ccc(Oc3ccccc3)cc12` [Compound No. 136] was tested, and the “rank (control effect, protective value from disease severity)” value was “A (protective value ≧80%)”. `CCC(C)c1ccc2nc3c(c(OC(C)=O)c2c1)CCC3` (centres unmarked) [Compound No. 153] was tested, and the “rank (control effect, protective value from disease severity)” value was “A (protective value ≧80%)”. In the case of `CCC(C)c1cc(Cl)c2nc(C)c(C)c(OC(C)=O)c2c1` (centres unmarked) [Compound No. 214, 4-acetoxy-6-s-butyl-8-chloro-2,3-dimethylquinoline], the “rank (control effect, protective value from disease severity)” value was “A (protective value ≧80%)”. In the case of `CCC(C)c1ccc2nc(C)c(C)c(OC(=O)N(C)C)c2c1` (centres unmarked) [compound 71], the “rank (control effect, protective value from disease severity)” value was “A (protective value ≧80%)”. For `C=CCC(=O)Oc1c(C)c(C)nc2ccc(C(C)CC)cc12` (centres unmarked) [compound 175], the “rank (control effect, protective value from disease severity)” value was “A (protective value ≧80%)”. In the case of `CCC(C)c1ccc2nc(C)c(C)c(OC(=O)CC(C)C)c2c1` (centres unmarked) [compound 176], the “rank (control effect, protective value from disease severity)” value was “A (protective value ≧80%)”. For `CC(=O)Oc1c(C)c(C)nc2cc(C)c(Br)cc12` [compound 196], the “rank (control effect, protective value from disease severity)” value was “A (protective value ≧80%)”.
